From the supplement of paper PMC10307832

Columns and labels:
Assay in all cases: relative viability (nuclei count vs DMSO), 5 days (fraction); higher = more cells survive
[1] = compound: O=C(CCCCCCNC(=O)c1cnc(N(c2ccccc2)c2ccccc2)nc1)NO [Ricolinostat] + CCNC(=O)c1noc(-c2cc(C(C)C)c(O)cc2O)c1-c1ccc(CN2CCOCC2)cc1 [Luminespib] (partner 0.01 µM)
Method in brief: (§1)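 For relative viability, nuclei counts in treated wells were divided by those in vehicle wells. Lung cancer cell lines had been pin-tool dosed in 1536-well plates the day after seeding and cultured for 5 days, then fixed and stained in one step (final 0.05% Triton X-100, 1% formaldehyde, 1 ug/ml Hoechst) and imaged at 4×. Doses were one drug alone or a fixed anchor-drug dose plus five library-drug doses (not always all listed) in √10 steps, and values are duplicate-plate medians.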

[2] = compound: CC1=CN2C(=O)C=C(N=C2C(=C1)C(C)NC3=CC=CC=C3)N4CCOCC4 [TGX 221] + CCNC(=O)c1noc(-c2cc(C(C)C)c(O)cc2O)c1-c1ccc(CN2CCOCC2)cc1 [Luminespib] (partner 0.01 µM)
Method in brief: as §1

[3] = compound: C1=CC=C(C(=C1)C2=CC=C(C=C2)C3=CSC4=C3C(=C(C(=O)N4)C#N)O)O + Nc1nc2[nH]cc(CCc3ccc(C(=O)N[C@@H](CCC(=O)O)C(=O)O)cc3)c2c(=O)[nH]1 [Pemetrexed] (partner 0.2 µM)
Method in brief: as §1

[4] = compound: CC1=CN2C(=O)C=C(N=C2C(=C1)C(C)NC3=CC=CC=C3)N4CCOCC4 [TGX 221] + CC(C)C[C@H](NC(=O)[C@H](Cc1ccccc1)NC(=O)c1cnccn1)B(O)O [Bortezomib] (partner 0.002 µM)
Method in brief: as §1

Cell Line | relative viability ([1]; first compound 0.08 µM) | relative viability ([1]; first compound 0.253 µM) | relative viability ([1]; first compound 0.8 µM) | relative viability ([1]; first compound 2.53 µM) | relative viability ([2]; first compound 0.08 µM) | relative viability ([2]; first compound 0.253 µM) | relative viability ([2]; first compound 0.8 µM) | relative viability ([2]; first compound 2.53 µM) | relative viability ([2]; first compound 8 µM) | relative viability ([3]; first compound 0.253 µM) | relative viability ([3]; first compound 0.8 µM) | relative viability ([3]; first compound 2.53 µM) | relative viability ([3]; first compound 8 µM) | relative viability ([4]; first compound 0.08 µM) | relative viability ([4]; first compound 0.253 µM) | relative viability ([4]; first compound 0.8 µM) | relative viability ([4]; first compound 2.53 µM) | relative viability ([4]; first compound 8 µM) | relative viability ([3]; first compound 0.08 µM)
NCI-H647 | 0.161 | 0.238 | 0.117 | 0.21 | 0.186 | 0.164 | 0.263 | 0.17 | 0.118 | 0.18 | 0.16 | 0.17 | 0.189 | 0.929 | 0.66 | 0.926 | 0.676 | 0.616 | –
NCI-H1975 | 0.243 | 0.227 | 0.186 | 0.179 | 0.151 | 0.2 | 0.138 | 0.2 | 0.145 | 0.288 | 0.302 | 0.307 | 0.295 | 0.459 | 0.351 | 0.384 | 0.39 | 0.305 | 0.312
NCI-H2126 | – | 0.919 | 1.01 | 0.862 | 0.909 | 0.832 | 0.842 | 0.764 | 0.808 | 0.823 | 0.694 | 0.664 | 0.513 | 1.09 | 1.08 | 1.06 | 1.06 | 1.08 | 0.837
NCI-H1651 | 0.712 | 0.891 | 0.852 | 0.914 | 0.828 | 0.653 | 0.741 | 0.592 | 0.568 | 0.62 | 0.513 | 0.617 | 0.549 | – | 0.96 | 0.919 | 0.868 | 0.858 | 0.386
HCC-827 | 0.581 | 0.76 | 0.487 | 0.552 | 0.475 | 0.444 | 0.872 | 0.426 | 0.451 | 0.25 | 0.244 | 0.305 | 0.282 | 0.981 | 1.06 | 1.07 | 1.17 | 1.07 | 0.283
NCI-H2085 | – | 0.447 | 0.37 | 0.357 | 0.518 | 0.361 | 0.335 | 0.223 | 0.319 | 1.01 | 0.801 | 0.886 | 0.818 | 1.05 | 0.856 | 0.889 | 0.809 | 0.724 | 0.838
EPLC-272H | 0.159 | 0.266 | 0.292 | 0.161 | 0.346 | 0.419 | 0.388 | 0.28 | 0.177 | 0.249 | 0.297 | 0.32 | 0.441 | 0.966 | 0.879 | 0.893 | – | 1 | 0.346
A-427 | – | 0.81 | 0.605 | 0.698 | 0.892 | 0.82 | 0.863 | 0.843 | 0.861 | 1.11 | 1.03 | 1.01 | 0.989 | 0.954 | 0.99 | 0.965 | 0.942 | 0.993 | 0.941
NCI-H2228 | 0.157 | 0.115 | 0.167 | 0.15 | 0.123 | 0.146 | 0.108 | 0.136 | 0.153 | 0.454 | 0.351 | 0.332 | 0.367 | 1.02 | 0.787 | 1.21 | 0.77 | 0.751 | 0.371
EMC-BAC-2 | 1.05 | 1.14 | 1.12 | 1.11 | 1.12 | 1.08 | 1.16 | 1.11 | 1.08 | 0.618 | 0.444 | 0.451 | 0.418 | 1.02 | 1.02 | 1.08 | 1.03 | 1.07 | 0.447
NCI-H2405 | 0.615 | 0.929 | 0.69 | 0.874 | 0.622 | 0.533 | 0.599 | 0.623 | 0.47 | – | 1.07 | 0.975 | 0.948 | 0.94 | 1.04 | 1.01 | 0.92 | 0.953 | 1.01
NCI-H1993 | – | 0.941 | 0.87 | 0.724 | 0.781 | 0.711 | 0.724 | 0.869 | 0.805 | 0.939 | 0.551 | 0.54 | 0.497 | 0.932 | 0.838 | 0.963 | 0.785 | 0.892 | 0.585
LU99A | 0.254 | 0.224 | 0.239 | 0.25 | 0.251 | 0.31 | 0.208 | 0.249 | 0.316 | 0.138 | 0.265 | 0.178 | 0.335 | 1.06 | 0.887 | 1.04 | 1.04 | 1.09 | 0.191
ChaGo-K-1 | 0.679 | 0.633 | 0.561 | 0.577 | 0.584 | 0.617 | 0.574 | 0.559 | 0.505 | 0.257 | 0.256 | 0.251 | 0.256 | 0.866 | 1.02 | 1.02 | 0.984 | 1.16 | 0.271
NCI-H1355 | 0.645 | 0.764 | 0.753 | 0.712 | 0.713 | 0.59 | 0.674 | 0.588 | 0.621 | 1.12 | 1.13 | 1.04 | 1.11 | 1.18 | 1.16 | 1.26 | 1.12 | 1.08 | 1.01
NCI-H838 | 0.254 | 0.291 | 0.289 | 0.169 | 0.219 | 0.335 | 0.296 | 0.344 | 0.266 | 0.291 | 0.253 | 0.233 | 0.243 | 0.751 | 0.853 | 0.713 | 0.712 | 0.544 | 0.209
NCI-H460 | 0.0274 | 0.0237 | 0.0543 | 0.0362 | 0.0366 | 0.029 | 0.0351 | 0.04 | 0.028 | 0.0612 | 0.0666 | 0.0616 | 0.0618 | 0.724 | 0.922 | 1.02 | 1.11 | 1 | 0.0846
